Common to all, as to type: cell-based
For one assay, the target named is T1, human TLR9 (Homo sapiens, UniProt Q9NR96).
T1 construct: host or cells: HEK-Blue cells
T1 sequence (Q9NR96 26-1032): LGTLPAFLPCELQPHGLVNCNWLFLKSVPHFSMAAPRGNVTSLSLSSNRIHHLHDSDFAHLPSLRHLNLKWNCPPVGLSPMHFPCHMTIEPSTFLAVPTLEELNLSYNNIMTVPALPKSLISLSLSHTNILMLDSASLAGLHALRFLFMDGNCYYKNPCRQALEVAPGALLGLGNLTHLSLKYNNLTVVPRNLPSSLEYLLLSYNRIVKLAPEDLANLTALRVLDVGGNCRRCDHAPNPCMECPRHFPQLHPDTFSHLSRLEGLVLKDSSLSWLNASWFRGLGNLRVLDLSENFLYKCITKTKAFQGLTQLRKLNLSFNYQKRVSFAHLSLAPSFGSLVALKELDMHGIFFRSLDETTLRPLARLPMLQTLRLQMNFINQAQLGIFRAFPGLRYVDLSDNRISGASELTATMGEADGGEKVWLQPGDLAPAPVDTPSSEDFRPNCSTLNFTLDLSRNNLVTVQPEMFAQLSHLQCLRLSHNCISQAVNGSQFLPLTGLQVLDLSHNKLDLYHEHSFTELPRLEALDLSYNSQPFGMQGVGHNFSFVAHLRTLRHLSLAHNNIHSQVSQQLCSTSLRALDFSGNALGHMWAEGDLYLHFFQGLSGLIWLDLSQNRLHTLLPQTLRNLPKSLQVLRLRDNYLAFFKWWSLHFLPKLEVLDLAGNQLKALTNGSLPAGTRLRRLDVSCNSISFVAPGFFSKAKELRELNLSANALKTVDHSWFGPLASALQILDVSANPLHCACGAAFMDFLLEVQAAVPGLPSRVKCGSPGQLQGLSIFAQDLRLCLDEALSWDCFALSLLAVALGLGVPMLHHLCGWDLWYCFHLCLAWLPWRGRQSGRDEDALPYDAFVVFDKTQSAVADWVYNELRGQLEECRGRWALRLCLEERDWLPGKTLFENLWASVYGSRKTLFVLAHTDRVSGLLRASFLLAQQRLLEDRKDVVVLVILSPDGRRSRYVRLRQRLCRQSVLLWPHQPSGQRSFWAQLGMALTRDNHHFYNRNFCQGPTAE
Kind of assay: TLR9 inhibition reporter assay (HEK-Blue SEAP reporter, ODN2006 stimulation). The settings on record: HEK-Blue cells overexpressing human TLR9, SEAP reporter, ODN2006 5 nM, 22 hour incubation. A digest of the protocol:
(§1)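 Dose–response from 0.05 nM to 50 μM was run in HEK-Blue human TLR7, TLR8 and TLR9 reporter cells. After 30 min at room temperature with compound, ligand was added (TLR7 gardiquimod 7.5 μM; TLR8 R848 15.9 μM; TLR9 ODN2006 5 nM) and SEAP measured next day, at 22 h.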

The target of a further assay is T2, human TLR8 (Homo sapiens, UniProt Q9NR97).
T2 construct: host or cells: HEK-Blue cells
T2 sequence (Q9NR97 27-1041): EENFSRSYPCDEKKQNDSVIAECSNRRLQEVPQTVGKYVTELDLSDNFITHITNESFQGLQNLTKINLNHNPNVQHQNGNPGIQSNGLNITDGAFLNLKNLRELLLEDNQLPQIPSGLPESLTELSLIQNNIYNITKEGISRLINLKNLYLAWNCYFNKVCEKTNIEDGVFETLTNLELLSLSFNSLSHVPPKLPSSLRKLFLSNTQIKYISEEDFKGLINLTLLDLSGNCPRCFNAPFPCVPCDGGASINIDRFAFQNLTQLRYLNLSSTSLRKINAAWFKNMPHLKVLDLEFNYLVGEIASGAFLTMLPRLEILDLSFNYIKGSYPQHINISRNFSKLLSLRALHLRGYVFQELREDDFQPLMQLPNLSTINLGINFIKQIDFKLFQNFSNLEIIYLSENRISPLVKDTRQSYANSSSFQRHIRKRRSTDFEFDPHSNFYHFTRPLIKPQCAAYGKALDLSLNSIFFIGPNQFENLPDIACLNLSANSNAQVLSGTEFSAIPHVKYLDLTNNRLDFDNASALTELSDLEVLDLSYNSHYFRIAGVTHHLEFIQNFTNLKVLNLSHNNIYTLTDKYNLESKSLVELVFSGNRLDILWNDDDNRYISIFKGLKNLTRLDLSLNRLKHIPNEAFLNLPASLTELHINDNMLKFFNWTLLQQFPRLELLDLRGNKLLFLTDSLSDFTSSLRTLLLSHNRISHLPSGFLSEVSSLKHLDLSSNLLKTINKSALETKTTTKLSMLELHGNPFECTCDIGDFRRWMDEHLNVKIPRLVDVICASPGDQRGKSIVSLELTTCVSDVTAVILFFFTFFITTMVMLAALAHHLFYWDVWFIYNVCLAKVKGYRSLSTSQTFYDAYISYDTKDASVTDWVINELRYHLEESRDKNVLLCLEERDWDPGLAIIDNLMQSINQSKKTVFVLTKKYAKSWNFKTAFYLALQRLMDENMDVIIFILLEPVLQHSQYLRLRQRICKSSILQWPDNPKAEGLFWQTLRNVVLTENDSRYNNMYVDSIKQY
Description: TLR8 inhibition reporter assay (HEK-Blue SEAP reporter, R848 stimulation). The settings on record: HEK-Blue cells overexpressing human TLR8, SEAP reporter, R848 15.9 μM, 22 hour incubation. A digest of the protocol:
as §1
(In a reporter assay the amount or activity of a reporter protein is the signal.)

Another assay deals with T3, human TLR7 (Homo sapiens, UniProt Q9NYK1).
T3 construct: host or cells: HEK-Blue cells
T3 sequence (Q9NYK1 27-1049): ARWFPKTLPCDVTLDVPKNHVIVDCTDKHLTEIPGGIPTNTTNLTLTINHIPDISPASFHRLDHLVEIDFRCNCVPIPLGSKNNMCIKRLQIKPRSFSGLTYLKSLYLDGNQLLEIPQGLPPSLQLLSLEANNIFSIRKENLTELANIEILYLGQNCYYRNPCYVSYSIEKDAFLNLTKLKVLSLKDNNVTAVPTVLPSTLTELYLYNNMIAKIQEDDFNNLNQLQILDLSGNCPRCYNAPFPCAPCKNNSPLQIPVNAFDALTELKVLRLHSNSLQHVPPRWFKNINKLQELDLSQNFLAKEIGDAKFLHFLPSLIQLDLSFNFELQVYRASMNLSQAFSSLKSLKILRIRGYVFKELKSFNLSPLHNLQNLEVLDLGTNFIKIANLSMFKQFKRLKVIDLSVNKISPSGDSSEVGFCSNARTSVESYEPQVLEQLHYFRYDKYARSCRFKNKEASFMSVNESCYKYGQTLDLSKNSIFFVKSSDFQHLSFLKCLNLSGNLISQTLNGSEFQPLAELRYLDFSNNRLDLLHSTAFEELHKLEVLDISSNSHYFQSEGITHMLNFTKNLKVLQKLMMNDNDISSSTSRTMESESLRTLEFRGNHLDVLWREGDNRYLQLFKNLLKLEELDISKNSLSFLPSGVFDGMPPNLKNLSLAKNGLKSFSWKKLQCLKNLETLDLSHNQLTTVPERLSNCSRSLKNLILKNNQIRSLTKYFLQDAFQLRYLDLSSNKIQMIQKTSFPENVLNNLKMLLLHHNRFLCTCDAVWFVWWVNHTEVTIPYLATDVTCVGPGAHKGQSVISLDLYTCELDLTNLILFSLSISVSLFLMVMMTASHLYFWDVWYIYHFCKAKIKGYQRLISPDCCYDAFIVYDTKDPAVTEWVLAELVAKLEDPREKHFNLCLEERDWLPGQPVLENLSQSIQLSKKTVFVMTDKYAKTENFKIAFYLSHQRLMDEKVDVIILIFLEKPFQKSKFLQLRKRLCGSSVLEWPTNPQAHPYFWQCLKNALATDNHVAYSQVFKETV
Description: TLR7 inhibition reporter assay (HEK-Blue SEAP reporter, gardiquimod stimulation). The settings on record: HEK-Blue cells overexpressing human TLR7, SEAP reporter, gardiquimod 7.5 μM, 22 hour incubation. The essentials: as §1

Results on 13 compounds are retold here after US11447466B2, “Substituted indole compounds useful as inhibitors of TLR7/8/9” (BRISTOL-MYERS SQUIBB COMPANY, priority 2017, dated 2022).

A value given as a limit tells only on which side of the number the result lay.

For the compound `Cc1cc(-c2[nH]c3ccc(C4CCN(C(C)C)CC4)cc3c2C(C)C)c(C)n(C)c1=O` [Example 214, 5-(3-isopropyl-5-(1-isopropylpiperidin-4-yl)-1H-indol-2-yl)-1,3,6-trimethylpyridin-2(1H)-one], the results for the IC50 against human TLR9, at human TLR8 and against human TLR7 were 5.69 µM, 0.0079 µM and 0.0139 µM, respectively.
The like results for `Cc1cc(-c2[nH]c3ccc(C4CCN(CCN5C(=O)CCC5=O)CC4)cc3c2C(C)C)cn(C)c1=O` [Example 84, 1-(2-(4-(2-(1,5-dimethyl-6-oxo-1,6-dihydropyridin-3-yl)-3-isopropyl-1H-indol-5-yl)piperidin-1-yl)ethyl)pyrrolidine-2,5-dione] were, in that order, at least 50 µM, 0.0736 µM and 0.0443 µM.
The like results for `Cc1c(-c2[nH]c3ccc(C4CCN(S(=O)(=O)CCN5CCCC5)CC4)cc3c2C(C)C)cn(C)c(=O)c1Cl` [Example 308, 3-chloro-5-(3-isopropyl-5-(1-((2-(pyrrolidin-1-yl)ethyl)sulfonyl)piperidin-4-yl)-1H-indol-2-yl)-1,4-dimethylpyridin-2(1H)-one] were, in that order, 5.65 µM, 0.0221 µM and 0.002 µM.
The like results for `Cc1c(-c2[nH]c3ccc(C4CCN(C(C)C)CC4)cc3c2C(C)C)cn(C)c(=O)c1-c1cccnc1` [Example 237, 5-(3-isopropyl-5-(1-isopropylpiperidin-4-yl)-1H-indol-2-yl)-1,4-dimethyl-[3,3′-bipyridin]-2(1H)-one] were, in that order, 2.1 µM, 0.0198 µM and 0.181 µM.
Take `Cc1cc(-c2[nH]c3ccc(C4CCN(CC(C)C)CC4)cc3c2C(C)C)cn(Cc2ccccc2)c1=O` [Example 113, 1-benzyl-5-(5-(1-isobutylpiperidin-4-yl)-3-isopropyl-1H-indol-2-yl)-3-methylpyridin-2(1H)-one]: the IC50 came out at 2.19 µM against human TLR9, 0.0707 µM against human TLR8 and 0.0264 µM on human TLR7.
The corresponding values for `Cc1cc(-c2[nH]c3ccc(C4CCN(C(C)c5cnn(C)c5)CC4)cc3c2C(C)C)cn(C)c1=O` (stereo not drawn) [Example 269, 5-(3-isopropyl-5-(1-(1-(1-methyl-1H-pyrazol-4-yl)ethyl)piperidin-4-yl)-1H-indol-2-yl)-1,3-dimethylpyridin-2(1H)-one] are 5.9 µM, 0.0046 µM and 0.0355 µM.
Consider `Cc1cc(-c2[nH]c3ccc(C4CCNCC4)cc3c2C(C)C)cn(CC(C)(C)O)c1=O` [Example 43, 1-(2-hydroxy-2-methylpropyl)-5-(3-isopropyl-5-(piperidin-4-yl)-1H-indol-2-yl)-3-methylpyridin-2(1H)-one], for which the IC50 was 1.56 µM against human TLR9, 0.157 µM at human TLR8 and 0.11 µM against human TLR7.
The corresponding values for `Cc1cc(-c2[nH]c3ccc(C4CCNCC4)cc3c2C(C)C)cn(CC(F)(F)F)c1=O` [Example 45, 5-(3-isopropyl-5-(piperidin-4-yl)-1H-indol-2-yl)-3-methyl-1-(2,2,2-trifluoroethyl)pyridin-2(1H)-one] are 4.67 µM, 0.0484 µM and 0.0129 µM.
The like results for `Cc1cc(-c2[nH]c3ccc(C4CCN(Cc5ccnn5C)CC4)cc3c2C(C)C)cn(C)c1=O` [Example 197, 5-(3-isopropyl-5-(1-((1-methyl-1H-pyrazol-5-yl)methyl)piperidin-4-yl)-1H-indol-2-yl)-1,3-dimethylpyridin-2(1H)-one] were, in that order, 8.34 µM, 0.0024 µM and 0.0046 µM.
The corresponding values for `Cc1cc(=O)n(C)nc1-c1[nH]c2ccc(C3CCNCC3)cc2c1C(C)C` [Example 10, 6-(3-isopropyl-5-(piperidin-4-yl)-1H-indol-2-yl)-2,5-dimethylpyridazin-3(2H)-one] are 1.54 µM, 0.0384 µM and 0.33 µM.
Take `Cc1cc(-c2[nH]c3ccc(C4CCN(CC(N)=O)CC4)cc3c2C(C)C)cn(C)c1=O` [Example 150, 2-(4-(2-(1,5-dimethyl-6-oxo-1,6-dihydropyridin-3-yl)-3-isopropyl-1H-indol-5-yl)piperidin-1-yl)acetamide]: the IC50 against human TLR9 turned out to be 11.4 µM; against human TLR8 it was 0.0044 µM; against human TLR7, 0.0012 µM.
The like results for `COC(=O)c1cc(-c2[nH]c3ccc(C4CCNCC4)cc3c2C(C)C)cn(C)c1=O` [Example 37, methyl 5-(3-isopropyl-5-(piperidin-4-yl)-1H-indol-2-yl)-1-methyl-2-oxo-1,2-dihydropyridine-3-carboxylate] were, in that order, 2.43 µM, 0.182 µM and 0.458 µM.
The corresponding values for `CC(C)c1c(-c2ccc(=O)n(C)c2)[nH]c2ccc(C3CCN(C4COC4)CC3)cc12` [Example 175, 5-(3-isopropyl-5-(1-(oxetan-3-yl)piperidin-4-yl)-1H-indol-2-yl)-1-methylpyridin-2(1H)-one] are 15.5 µM, 0.0875 µM and 0.275 µM.

Broadly, the IC50 is the concentration that inhibits the measured activity by half.
